The record followed here is US20230365592A1 (Agios Pharmaceuticals, Inc., priority 2022, published 2023).

The target in the first experiment is T1, human PAH with the R408W mutation (Homo sapiens, UniProt P00439, R408W).
T1 construct: expressed in transfected cells
T1 sequence (P00439 1-452 R408W): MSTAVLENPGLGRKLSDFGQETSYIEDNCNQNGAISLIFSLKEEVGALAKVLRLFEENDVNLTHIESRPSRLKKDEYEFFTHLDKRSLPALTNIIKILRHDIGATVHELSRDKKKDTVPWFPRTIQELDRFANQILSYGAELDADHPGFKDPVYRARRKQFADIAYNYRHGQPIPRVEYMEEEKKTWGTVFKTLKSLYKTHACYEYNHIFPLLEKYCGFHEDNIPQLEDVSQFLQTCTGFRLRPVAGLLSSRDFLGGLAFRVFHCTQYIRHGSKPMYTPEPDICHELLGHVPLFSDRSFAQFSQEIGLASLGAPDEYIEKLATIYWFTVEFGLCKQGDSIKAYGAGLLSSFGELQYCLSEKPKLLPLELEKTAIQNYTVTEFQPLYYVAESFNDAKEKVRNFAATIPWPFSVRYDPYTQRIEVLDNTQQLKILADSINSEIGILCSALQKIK
In words: Cell Based Phenylalanine Flux Assay.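 Further: after compound treatment, cells received sepiapterin plus isotope-labelled Phenylalanine for 4 hours, then labelled Tyrosine in the medium was quantified, 10-point 2-fold dilution series run in duplicate.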 The following applies: A375 cells expressing R408W PAH; 24 hrs with compound, then 20 µM sepiapterin and 800 µM 13C9,15N-Phenylalanine for 4 hours; 13C-Tyrosine by LC-MS; average where tested multiple times; read-out: AC50.
As to `c1ccn2nc(C3c4nc[nH]c4CCN3c3nnc(-c4cnccn4)o3)cc2c1` (centres unmarked), the AC50 was in the range of 1 to 5 µM. Turning to `c1cnnc(-c2nnc(N3CCc4[nH]cnc4C3c3cc4c(C5CC5)cccn4n3)o2)c1` (centres unmarked), the AC50 was 1 to 5 µM. On the same count and under the same terms, with `CC(C)(C)c1nnc(N2CCc3[nH]cnc3C2c2cc3c(C(F)(F)F)cccn3n2)o1` (centres unmarked) the figure was 1 to 5 µM; with `Nc1cnc(N2CCc3[nH]cnc3C2c2cc3cccc(C(F)(F)F)n3n2)nc1` (centres unmarked), over 5 µM. Same read-out and setting: with `COCCc1ccc2c(C(=O)N3CCc4[nH]cnc4C3c3cc4ccccn4n3)cnn2c1` (centres unmarked) the figure was over 5 µM; with `Fc1ccc(-c2nnc(N3CCc4[nH]cnc4C3c3cc4ccccn4n3)o2)nc1` (centres unmarked), 1 to 5 µM. With `CC(C)(C)c1nnc(N2CCc3[nH]cnc3C2c2cc3c(F)cccn3n2)o1` (centres unmarked), the AC50 is over 5 µM. On the same count and under the same terms, then `O=C(c1nnc(-c2cnn(C(F)(F)F)c2)o1)N1CCc2[nH]cnc2C1c1cc2c(OC(F)(F)F)cccn2n1` (centres unmarked), with 1 to 5 µM.

The experiment is the same for the next values; noted with them: A375 cells expressing human PAH R408W; 24 hrs compound incubation; 13C-Tyrosine by LC-MS; average where tested multiple times; read-out: AC50.
As for `FC(F)c1cccn2nc([C@H]3c4nc[nH]c4CCN3c3ccccn3)cc12` [Example 1978, (R)-4-(4-(difluoromethyl)pyrazolo[1,5-a]pyridin-2-yl)-5-(pyridin-2-yl)-4,5,6,7-tetrahydro-1H-imidazo[4,5-c]pyridine], the AC50 is over 5 µM. Still for that read-out and setting: then `Cc1cccnc1-c1nnc(N2CCc3[nH]cnc3[C@H]2c2cc3c(C(F)(F)F)cccn3n2)o1` [Example 2276, (S)-2-(3-methylpyridin-2-yl)-5-(4-(4-(trifluoromethyl)pyrazolo[1,5-a]pyridin-2-yl)-1,4,6,7-tetrahydro-5H-imidazo[4,5-c]pyridin-5-yl)-1,3,4-oxadiazole], with under 0.5 µM; and `Cn1ccc(-c2nnc(C(=O)N3CCc4[nH]cnc4[C@@H]3c3cc4ccccn4n3)s2)n1` [Example 2017, (R)-(5-(1-methyl-1H-pyrazol-3-yl)-1,3,4-thiadiazol-2-yl)(4-(pyrazolo[1,5-a]pyridin-2-yl)-1,4,6,7-tetrahydro-5H-imidazo[4,5-c]pyridin-5-yl)methanone], with over 5 µM. The same measure, in the same setting: with `Cc1cccn2nc([C@@H]3c4nc[nH]c4CCN3c3nnc(-c4c(F)cccc4F)o3)cc12` [Example 1845, (S)-2-(2,6-difluorophenyl)-5-(4-(4-methylpyrazolo[1,5-a]pyridin-2-yl)-6,7-dihydro-1H-imidazo[4,5-c]pyridin-5(4H)-yl)-1,3,4-oxadiazole] the figure was under 0.5 µM; with `O=C(c1nnc(-c2cnn(C(F)(F)F)c2)o1)N1CCc2[nH]cnc2[C@@H]1c1cc2ccccn2n1` [Example 2427, (R)-(4-(pyrazolo[1,5-a]pyridin-2-yl)-6,7-dihydro-1H-imidazo[4,5-c]pyridin-5(4H)-yl)(5-(1-(trifluoromethyl)-1H-pyrazol-4-yl)-1,3,4-oxadiazol-2-yl)methanone], over 5 µM.

The same experiment, now with this note: A375 cells expressing human R408W PAH; 24 hrs compound incubation; 13C-Tyrosine by LC-MS; average where tested multiple times; read-out: AC50.
On to `O=C(c1oc(C2(O)CC2)nc1C(F)F)N1CCc2[nH]cnc2[C@@H]1c1cc2c(F)cccn2n1` [Example 1235, (R)-(4-(difluoromethyl)-2-(1-hydroxycyclopropyl)oxazol-5-yl)(4-(4-fluoropyrazolo[1,5-a]pyridin-2-yl)-6,7-dihydro-1H-imidazo[4,5-c]pyridin-5(4H)-yl)methanone], for which the AC50 lay within 1 to 5 µM.

As to `CC(C)(O)c1nc(C(F)F)c(C(=O)N2CCc3[nH]cnc3[C@H]2c2cc3cccc(F)n3n2)o1` [Example 1238, (S)-(4-(difluoromethyl)-2-(2-hydroxypropan-2-yl)oxazol-5-yl)(4-(7-fluoropyrazolo[1,5-a]pyridin-2-yl)-6,7-dihydro-1H-imidazo[4,5-c]pyridin-5(4H)-yl)methanone], the AC50 was under 0.5 µM. On the same count and under the same terms, then `O=C(c1nnc(-c2ccn(C(F)F)n2)o1)N1CCc2[nH]cnc2[C@H]1c1cc2cccc(C(F)F)n2n1` [Example 1442, (S)-(5-(1-(difluoromethyl)-1H-pyrazol-3-yl)-1,3,4-oxadiazol-2-yl)(4-(7-(difluoromethyl)pyrazolo[1,5-a]pyridin-2-yl)-6,7-dihydro-1H-imidazo[4,5-c]pyridin-5(4H)-yl)methanone], with under 0.5 µM. Same read-out and setting: with `CC(C)(F)c1nnc(C(=O)N2CCc3[nH]cnc3[C@@H]2c2cc3cccc(C(F)(F)F)n3n2)o1` [Example 1160, (R)-(5-(2-fluoropropan-2-yl)-1,3,4-oxadiazol-2-yl)(4-(7-(trifluoromethyl)pyrazolo[1,5-a]pyridin-2-yl)-6,7-dihydro-1H-imidazo[4,5-c]pyridin-5(4H)-yl)methanone] the figure was 1 to 5 µM. The same measure, in the same setting: then `Cn1ccc(-c2nnc(C(=O)N3CCc4[nH]cnc4[C@@H]3c3cc4ccc(F)cn4n3)o2)n1` [Example 1103, (R)-(4-(6-fluoropyrazolo[1,5-a]pyridin-2-yl)-6,7-dihydro-1H-imidazo[4,5-c]pyridin-5(4H)-yl)(5-(1-methyl-1H-pyrazol-3-yl)-1,3,4-oxadiazol-2-yl)methanone], with over 5 µM; and `Cn1cc(-c2nnc(C(=O)N3CCc4[nH]cnc4[C@@H]3c3cc4ccccn4n3)o2)c(C(F)(F)F)n1` [Example 679, (R)-(5-(1-methyl-3-(trifluoromethyl)-1H-pyrazol-4-yl)-1,3,4-oxadiazol-2-yl)(4-(pyrazolo[1,5-a]pyridin-2-yl)-6,7-dihydro-1H-imidazo[4,5-c]pyridin-5(4H)-yl)methanone], with over 5 µM; and `Cn1nccc1-c1nnc(C(=O)N2CCc3[nH]cnc3[C@H]2c2cc3c(C(F)F)cccn3n2)o1` [Example 1532, (S)-(4-(4-(difluoromethyl)pyrazolo[1,5-a]pyridin-2-yl)-6,7-dihydro-1H-imidazo[4,5-c]pyridin-5(4H)-yl)(5-(1-methyl-1H-pyrazol-5-yl)-1,3,4-oxadiazol-2-yl)methanone], with under 0.5 µM.

Take `O=C(c1nnc(C2CC2)o1)N1CCc2[nH]cnc2[C@@H]1c1cc2c(F)cccn2n1` [Example 947, (R)-(5-cyclopropyl-1,3,4-oxadiazol-2-yl)(4-(4-fluoropyrazolo[1,5-a]pyridin-2-yl)-6,7-dihydro-1H-imidazo[4,5-c]pyridin-5(4H)-yl)methanone]: the AC50 was over 5 µM. Same read-out and setting: with `O=C(c1nnc(-c2ccn(C(F)F)n2)o1)N1CCc2[nH]cnc2[C@H]1c1cc2cccc(Cl)n2n1` [Example 964, (S)-(4-(7-chloropyrazolo[1,5-a]pyridin-2-yl)-6,7-dihydro-1H-imidazo[4,5-c]pyridin-5(4H)-yl)(5-(1-(difluoromethyl)-1H-pyrazol-3-yl)-1,3,4-oxadiazol-2-yl)methanone] the figure was under 0.5 µM; with `O=C(c1ocnc1C(F)F)N1CCc2[nH]cnc2[C@@H]1c1cc2ccccn2n1` [Example 631, (R)-(4-(difluoromethyl)oxazol-5-yl)(4-(pyrazolo[1,5-a]pyridin-2-yl)-6,7-dihydro-1H-imidazo[4,5-c]pyridin-5(4H)-yl)methanone], 1 to 5 µM. As for `CC(C)(O)c1nc(C(F)F)c(C(=O)N2CCc3[nH]cnc3[C@@H]2c2cc3cccc(Cl)n3n2)o1` [Example 961, (R)-(4-(7-chloropyrazolo[1,5-a]pyridin-2-yl)-6,7-dihydro-1H-imidazo[4,5-c]pyridin-5(4H)-yl)(4-(difluoromethyl)-2-(2-hydroxypropan-2-yl)oxazol-5-yl)methanone], the AC50 was in the range of 1 to 5 µM. Still for that read-out and setting: then `Cc1ncccc1-c1nnc(C(=O)N2CCc3[nH]cnc3[C@H]2c2cc3c(F)cccn3n2)o1` [Example 1328, (S)-(4-(4-fluoropyrazolo[1,5-a]pyridin-2-yl)-6,7-dihydro-1H-imidazo[4,5-c]pyridin-5(4H)-yl)(5-(2-methylpyridin-3-yl)-1,3,4-oxadiazol-2-yl)methanone], with under 0.5 µM; and `O=C(c1nnc(C2CC2)o1)N1CCc2[nH]cnc2[C@H]1c1cc2cccc(C(F)F)n2n1` [Example 1390, (S)-(5-cyclopropyl-1,3,4-oxadiazol-2-yl)(4-(7-(difluoromethyl)pyrazolo[1,5-a]pyridin-2-yl)-6,7-dihydro-1H-imidazo[4,5-c]pyridin-5(4H)-yl)methanone], with 0.5 to 1 µM. For `Cc1cccn2nc([C@@H]3c4nc[nH]c4CCN3C(=O)c3cnn4cc(-c5cnn(C)c5)ccc34)cc12` [Example 1630, (S)-(6-(1-methyl-1H-pyrazol-4-yl)pyrazolo[1,5-a]pyridin-3-yl)(4-(4-methylpyrazolo[1,5-a]pyridin-2-yl)-6,7-dihydro-1H-imidazo[4,5-c]pyridin-5(4H)-yl)methanone], the AC50 lay in the range of 0.5 to 1 µM. Regarding `CC(C)(O)c1nc(C(F)F)c(C(=O)N2CCc3[nH]cnc3[C@@H]2c2cc3cccc(F)n3n2)o1` [Example 1239, (R)-(4-(difluoromethyl)-2-(2-hydroxypropan-2-yl)oxazol-5-yl)(4-(7-fluoropyrazolo[1,5-a]pyridin-2-yl)-6,7-dihydro-1H-imidazo[4,5-c]pyridin-5(4H)-yl)methanone], the AC50 was in the range of 1 to 5 µM. Still for that read-out and setting: with `C[C@H](O)c1nc(C(F)F)c(C(=O)N2CCc3[nH]cnc3[C@H]2c2cc3cccc(Cl)n3n2)o1` [Example 1195, ((S)-4-(7-chloropyrazolo[1,5-a]pyridin-2-yl)-6,7-dihydro-1H-imidazo[4,5-c]pyridin-5(4H)-yl)(4-(difluoromethyl)-2-((S)-1-hydroxyethyl)oxazol-5-yl)methanone] the figure was 0.5 to 1 µM.

A word on the AC50: it is the midpoint of the concentration-response curve, whichever way the signal moves.
